In patent US4436799A, “Photographic products and processes employing novel nondiffusible magenta dye-releasing compounds and precursors thereof” (priority 1983, dated 1984):
Several values for one entry are separate records, joined by “and”; a condition that tells them apart may be missing. Identical values can stand only once.

Assays:
Type in all cases: physicochemical
[1] = Extinction in solution with Ni2+ (synthesis examples)
Description: To a solution of 5.5 g (12.1 mmol) Compound E in 200 ml tetrahydrofuran, 100 ml pyridine and 4.8 g (37.2 mmol) N,N-diisopropylethylamine was added 3.0 g (3.17 mmol) 3,6-bis(1-p-t-butylphenylethyl)-2,5-bis(N-n-dodecylchloroformamidomethyl)benzoquinone (see U.S. Pat. No. 4,204,870, Col. 31). After stirring for 1 hour, an additional 2.5 g (2.64 mmol) of the acid chloride is added and the reaction stirred 28 hours at room temperature. The crude reaction mixture was concentrated to ca. 100 ml in vacuo at 40° C. and the residue was partitioned between ethyl acetate and 3 N HCl. The layers were separated, the organic phase washed with 3 N HCl (until washings were acidic), water and saturated sodium chloride solution. After drying (MgSO4) the organic phase was evaporated in vacuo and the residue recrystallized twice from 350-400 ml ethanol. Yield 7.5 g (72 percent) of yellow solid: ε^550 =13.0×10^4 (3:1 dioxane-pH 6 buffer+excess Ni^2+).
A solution of 5.0 g (31.4 mmol) quinoline-5,8-quinone [T. Urbanski and S. Krzyzanowski, Roczniki Chem., 27, 390 (1953); Chem. Abstr., 49, 1041b (1955)] in 50 ml ethyl alcohol and 100 ml tetrahydrofuran was chilled to <5° C. Concentrated HCl (1 ml) and a cold slurry of 10.0 g (31.8 mmol) 3-chloro-5-(m-hydroxyphenylsulfamoyl)-7-pyridylhydrazine in 100 ml ethyl alcohol/0.5 ml concentrated HCl were added in that order. […]

[2] = Dye diffusion, solution test; conditions: pH 13.4, 0.0025 M dye
Source text: (§1) The released dyes in Table I were also subjected to the conditions of two different dye diffusion tests. One, the "solution test" involved dissolving the dye in a viscous composition and transferring it through a receiving element which contains an opaque and reflecting layer in addition to the mordant layer. The other, a "gel pad test" involved imbibing the dye from solution into a thick gelatin layer, and then transferring it by direct lamination to the same receiving element which had been preswollen by soaking 5 minutes in a solution of […].
(§2) A transparent poly(ethylene terephthalate) film support coated with
(§3) (3) an overcoat layer of gelatin (4.3).
The viscous composition was prepared from 46.2 g potassium hydroxide and 54 g carboxymethylcellulose dissolved in 1200 ml water. […] Measurement of the rate of dye diffusion was commenced at the point at which half of the laminate had passed through the rollers. The appearance of dye on the mordant was measured at λmax as diffuse reflection density vs. time. The reflection density was converted to transmission density by computer with the aid of a mathematical relation derived from a previous calibration. A plot of transmission density, which is proportional to concentration vs. time, was derived; and the value of t-1/2 of dye transfer, the time in seconds required to obtain one-half of the maximum transmission density, calculated.

[3] = Spectra of Ni-dye complexes in solution; conditions: 3:1 dioxane:water, pH 7, excess nickel ion; for Solution HBW of Ni-dye complex: half band width
Source text: The receiver was removed from the dye solution, washed in distilled water, placed in a pH 7.0 buffer solution and dried. Transmission spectra obtained on each sample of the mordanted dyes were normalized by computer to a density of 1.0. The characteristic wavelength of the dye, λ1/2 in nm, is the mean of the wavelength limits of the absorption envelope at half the maximum density. The HBW ("half band width") in nm is the range or distance between those limits. The dye solution spectrum in 3:1 dioxane:water at pH 7 in the presence of excess nickel ion is also given.

[4] = Transmission spectra of Ni-dye complexes on mordanted receiving element (Example 1); conditions: pH 7.0 buffer
[5] = Light stability (percent fade after HID xenon arc irradiation); conditions: 10 days HID 6000 W xenon arc, 50,000 lux, Wratten 2B filter, approx. 38° C.
Source text: An alternative receiving element was used with the premetallized dye-complexes. It comprised a poly(ethylene terephthalate) film support having thereon a layer of gelatin (1.1 g/m^2) and a mordant layer of poly(styrene-co-1-vinylimidazole-co-3-benzyl-1-vinylimidazolium chloride (50:40:10) (4.5 g/m^2) and gelatin (2.2 g/m^2).
The above receiving elements at pH 7 were then subjected to 10 days irradiation by a high intensity daylight (HID), 6000 W Xenon arc lamp, the sample receiving 50,000 lux through a Wratten 2B (ultraviolet) filter at approximately 38° C. and low humidity. The percent fade represents the loss in density at λmax after irradiation.

[6] = Dye diffusion, gel pad test; conditions: 0.1 M KOH, 1.3×10^-3 M dye
Source text: as §1, §2, §3
A donor element, containing a thick pad of deionized acid-processed gelatin (26 g/m^2) hardened with 2 percent bis(vinylsulfonylmethyl)ether, was imbibed with a solution of 0.1 M in potassium hydroxide and 1.3×10^-3 M in dye. The pad was soaked to full penetration, surface wiped, and then laminated in direct contact to the above receiving element which had been presoaked for 5 minutes at 0.1 M KOH. The t-1/2 of dye transfer was obtained as in the solution test.

[7] = Comparative spectra on mordanted strips (Example 2); conditions: 2:1 nickel complex on mordanted strip; for HBW: band width at half Dmax; for λmax: wavelength(s) at actual Dmax
Source text: The absorption envelope of each of the metallized dyes is described by (1) the wavelength(s), λmax, at the actual Dmax, (2) the λ1/2 which is the mean of the wavelength limits of the absorption envelope at half the maximum density, and (3) the halfband width (HBW) which is the band width at half the Dmax. A narrow HBW generally designates a purer hue.

[8] = nickel sulfate/gelatin + poly(4-vinylpyridine)/gelatin mordant receiver, normalized to density 1.0
[9] = premetallized compound, alternative receiving element

Dye diffusion t1/2, Soln. [2]	Solution λ1/2 of Ni-dye complex [3]	Solution HBW of Ni-dye complex [3]	Mordant HBW of Ni-dye complex [4, 8]	Mordant λ1/2 of Ni-dye complex [4, 8]	% Fade (loss in density at λmax) ([5]; low humidity, pH 7)	Compound	Dye diffusion t1/2, Gel Pad [6]	λ1/2 [7]	HBW [7]	λmax [7]	also measured
44 s	543 nm	68 nm	66 nm	547 nm		CC(C)NS(=O)(=O)c1cnc(N=Nc2ccc(O)c3cccnc23)c(Cl)c1 [Compound D]					
39 s	544 nm	65 nm	70 nm	550 nm	1%	O=S(=O)(Nc1cccc(O)c1)c1cnc(N=Nc2ccc(O)c3cccnc23)c(Cl)c1 [Compound E, 8-[3-Chloro-5-(m-hydroxyphenylsulfamoyl)-2-pyridylazo]-5-quinolinol]					ε^550 ([1]; 3:1 dioxane-pH 6 buffer + Ni^2+): 6.6×10^4
41 s	548 nm	70 nm	76 nm	553 nm	2%	NS(=O)(=O)c1cccc(NS(=O)(=O)c2cnc(N=Nc3ccc(O)c4cccnc34)c(Cl)c2)c1 [A]	183 s				Dye diffusion t1/2, Gel Pad ([6]; listed as A'): 235 s; Solution HBW of Ni-dye complex ([3]; listed as A'): 68 nm; Solution λ1/2 of Ni-dye complex ([3]; listed as A'): 545 nm; % Fade (loss in density at λmax) [5, 9]: 3%; Mordant HBW of Ni-dye complex [4, 9]: 85 nm; Mordant λ1/2 of Ni-dye complex [4, 9]: 555 nm
69 s	543 nm	68 nm	66 nm	546 nm	0%	CN(c1cccc(O)c1)S(=O)(=O)c1cnc(N=Nc2ccc(O)c3cccnc23)c(Cl)c1 [F]					
81 s	542 nm	65 nm	70 nm	548 nm	0%	O=S(=O)(Nc1ccccc1)c1cnc(N=Nc2ccc(O)c3cccnc23)c(Cl)c1 [G]					
31 s	543 nm	65 nm	67 nm	545 nm	0%	NS(=O)(=O)c1cnc(N=Nc2ccc(O)c3cccnc23)c(Cl)c1 [B]	108 s				Dye diffusion t1/2, Gel Pad ([6]; listed as B'): 161 s; Solution HBW of Ni-dye complex ([3]; listed as B'): 68 nm; Solution λ1/2 of Ni-dye complex ([3]; listed as B'): 544 nm; % Fade (loss in density at λmax) [5, 9]: 4%; Mordant HBW of Ni-dye complex [4, 9]: 71 nm; Mordant λ1/2 of Ni-dye complex [4, 9]: 546 nm

More lines, now with the values behind:

Compound	Dye diffusion t1/2, Soln. [2]	Solution λ1/2 of Ni-dye complex [3]	Solution HBW of Ni-dye complex [3]	Mordant HBW of Ni-dye complex [4, 8]	Mordant λ1/2 of Ni-dye complex [4, 8]	% Fade (loss in density at λmax) ([5]; low humidity, pH 7)	Dye diffusion t1/2, Gel Pad [6]	λ1/2 [7]	HBW [7]	λmax [7]	also measured
CCCCCCCCCCCCN(CC1=C(C(C)c2ccc(C(C)(C)C)cc2)C(=O)C(CN(CCCCCCCCCCCC)C(=O)Oc2cccc(NS(=O)(=O)c3cnc(N=Nc4ccc(O)c5cccnc45)c(Cl)c3)c2)=C(C(C)c2ccc(C(C)(C)C)cc2)C1=O)C(=O)Oc1cccc(NS(=O)(=O)c2cnc(N=Nc3ccc(O)c4cccnc34)c(Cl)c2)c1 (stereo not drawn) [Compound 3]											ε^550 ([1]; 3:1 dioxane-pH 6 buffer + excess Ni^2+): 13.0×10^4
COc1cc(S(=O)(=O)Nc2cccc(O)c2)cnc1N=Nc1ccc(O)c2cccnc12 [J]	40 s	559 nm	78 nm	87 nm	568 nm	0%					
2:1 nickel complex of 2-(2-pyridylazo)-4-sulfamoyl-1-naphthol [Control Dye 1]	49 s						281 s	537 nm	101 nm	553 nm and 567 nm	
CN(c1ccccc1)c1ccc(N=Nc2ccc(S(N)(=O)=O)cn2)c([O-])c1.CN(c1ccccc1)c1ccc(N=Nc2ccc(S(N)(=O)=O)cn2)c([O-])c1.[Ni+2] [Control Dye 2, 2:1 nickel complex of 2-(5-sulfamoyl-2-pyridylazo)-5-(N-methylanilino)phenol]	45 s						265 s	540 nm	116 nm	540 nm and 572 nm	
2:1 nickel complex of 6-(2-carboxy-4-chlorphenylazo)-2,3-pyridinediol [Control Dye 3]								545 nm	86 nm	555 nm	
CC(C)NS(=O)(=O)c1cnc(N=Nc2ccc(O)c3cc(C(=O)Nc4cccc(O)c4)c(Cl)nc23)c(Cl)c1 [H]	49 s	548 nm	63 nm	72 nm	549 nm	7%					
COc1cc(S(=O)(=O)NC(C)(C)C)cnc1N=Nc1ccc(O)c2cccnc12 [Compound C]	37 s	560 nm	79 nm	82 nm	563 nm			545 nm	67 nm	560 nm	
